Assay results from PubChem BioAssay AID493138 (Sanford-Burnham Center for Chemical Genomics, 2011).
Activity calls are given as the source filed them. The rule behind the calls is not given here.

These compounds were tested against Alkaline phosphatase, placental type (Homo sapiens) (UniProt P05187) (assay: inhibitors of placental alkaline phosphatase – biochemical, human PLAP isozyme, selectivity assay for human IAP inhibitor project, SAR follow-up (AID 493138)). Settings: purified placental alkaline phosphatase, enzyme activity.

| IC50 | SMILES |
| --- | --- |
| > 100 µM (inactive) | Cc1ccc2nc(NNC(=O)c3ccc4c(c3)OCCO4)sc2c1 |
| > 100 µM (inactive) | CN(C)S(=O)(=O)c1cccc(NC(=S)NN=Cc2ccc(O)c(O)c2O)c1 |
| > 100 µM (inactive) | Cc1ccc(Nc2nc(-c3ccc(O)c(O)c3)cs2)cc1 |
| > 100 µM (inactive) | Cc1ccc(Nc2nc(-c3ccc(O)cc3O)cs2)cc1 |
| > 100 µM (inactive) | Cc1cccc(Nc2nc(-c3ccc(O)c(C(N)=O)c3)cs2)c1 |
| > 100 µM (inactive) | S=C(NCCC(c1ccccc1)c1ccccc1)Nc1ccc(Cl)cc1Cl |
| > 100 µM (inactive) | O=S(=O)(Nc1ncccn1)c1ccc(NC(=S)NCCC(c2ccccc2)c2ccccc2)cc1 |
| > 100 µM (inactive) | COc1cc(C=NN=C2SC(CC(=O)O)C(=O)N2c2ccc(O)cc2)ccc1O (stereo unspecified) |
| > 100 µM (inactive) | Cc1cc(C)cc(Nc2nc(-c3ccc(O)cc3O)cs2)c1 |
| > 100 µM (inactive) | O=[N+]([O-])c1ccccc1NC(=S)N/N=C/c1ccc(O)c(O)c1O |
| > 100 µM (inactive) | NS(=O)(=O)c1ccc(Nc2nc(-c3ccc(O)cc3O)cs2)cc1 |
| > 100 µM (inactive) | O=S(=O)(c1ccc(NC(=S)N/N=C/c2ccc(O)c(O)c2)cc1)N1CCOCC1 |
| > 100 µM (inactive) | COC(=O)/C=C1/S/C(=N/NC(=O)c2ccc(Cl)cc2Cl)NC1=O |
| > 100 µM (inactive) | O=S(=O)(c1ccc(NC(=S)N/N=C/c2ccc(O)c(O)c2O)cc1)N1CCOCC1 |
| > 100 µM (inactive) | COC(=O)/C=C1/S/C(=N/N=Cc2ccc(N(C)C)cc2)NC1=O |
| > 100 µM (inactive) | COc1cc(C=NNC(=S)Nc2cccc(S(=O)(=O)N(C)C)c2)cc(OC)c1O |
| > 100 µM (inactive) | COc1ccc(-c2csc(Nc3cccc4ccccc34)n2)cc1 |
| > 100 µM (inactive) | Cc1ccc2sc(NNC(=O)c3ccc4c(c3)OCCO4)nc2c1C |
| > 100 µM (inactive) | Oc1ccc(Nc2nc(-c3ccc(O)c(O)c3)cs2)cc1 |
| > 100 µM (inactive) | CCOc1cc(C=NNC(=S)NC2CCCCC2)ccc1O |
| > 100 µM (inactive) | COC(=O)/C=C1/S/C(=N/NC(=O)c2ccccc2OC)NC1=O |
| > 100 µM (inactive) | Cc1c(Cl)cccc1Nc1nc(-c2ccc(O)c(O)c2)cs1 |
| > 100 µM (inactive) | CC(C)(C)c1ccc(/C=N/N=C2\NC(=O)C(CC(=O)O)S2)cc1 (stereo unspecified) |
| > 100 µM (inactive) | COc1cc(/C=N/N=C2/SCC(=O)N2c2ccc(O)cc2)ccc1O |
| > 100 µM (inactive) | COC(=O)/C=C1/S/C(=N/NC(=O)c2ccc(OC)cc2)NC1=O |
| > 100 µM (inactive) | CCc1ccccc1Nc1nc(-c2ccc(O)c(O)c2)cs1 |

| IC50 | SMILES |
| --- | --- |
| > 100 µM (inactive) | COC(=O)/C=C1\SC(N=Nc2c(O)[nH]c3ccccc23)=NC1=O |
| 8.24 µM | O=[N+]([O-])c1ccccc1NC(=S)NN=Cc1ccc(O)c(O)c1 |
| > 100 µM (inactive) | COc1ccc(/C=N/N=C2/NC(=O)C(CC(=O)O)S2)cc1OC (stereo unspecified) |
| > 100 µM (inactive) | CC(=NNC(=S)Nc1ccccc1)c1ccc2c(c1)OCO2 |
| > 100 µM (inactive) | N#CCCn1cc(/C=N/N=C2/NC(=O)C(CC(=O)O)S2)c(-c2ccc(F)cc2)n1 (stereo unspecified) |
| > 100 µM (inactive) | COc1ccc(/C=N/N=C2\NC(=O)C(CC(=O)O)S2)c(OC)c1 (stereo unspecified) |
| > 100 µM (inactive) | Cc1ccc(-c2ccc(/C=N/N=C3\NC(=O)C(CC(=O)O)S3)o2)c([N+](=O)[O-])c1 (stereo unspecified) |
| > 100 µM (inactive) | FC(F)(F)c1cccc(NC(=S)NCCC(c2ccccc2)c2ccccc2)c1 |
| > 100 µM (inactive) | Cc1ccc(Cl)cc1Nc1nc(-c2ccc(O)c(O)c2)cs1 |
| > 100 µM (inactive) | COC(=O)/C=C1/S/C(=N/NC(=O)c2ccccc2C)NC1=O |
| > 100 µM (inactive) | Cc1ccc(C)c(Nc2nc(-c3ccc(O)cc3O)cs2)c1 |
| > 100 µM (inactive) | COc1ccc(C(=O)NNC(=S)NC2CCCCC2)cc1OC |
| > 100 µM (inactive) | Cc1ccc(Nc2nc(-c3ccc(O)cc3O)cs2)cc1C |
| > 100 µM (inactive) | COc1cccc(Nc2nc(-c3ccc(O)cc3)cs2)c1 |
| > 100 µM (inactive) | CCOc1cc(C=N/N=C2/NC(=O)C(CC(=O)O)S2)ccc1OCc1ccccc1Cl (stereo unspecified) |
| > 100 µM (inactive) | COc1cc([N+](=O)[O-])ccc1NC(=S)NNC(=O)c1ccc2c(c1)OCO2 |
| > 100 µM (inactive) | COc1ccc(-c2csc(Nc3cccc4ccccc34)n2)cc1F |
| > 100 µM (inactive) | COc1cc([N+](=O)[O-])ccc1NC(=S)NCCC(c1ccccc1)c1ccccc1 |
| > 100 µM (inactive) | Cc1cccc(C)c1NC(=S)N/N=C/c1ccc(O)c(O)c1O |
| > 100 µM (inactive) | CCOc1ccc(Nc2nc(-c3ccc(O)c(O)c3)cs2)cc1 |
| > 100 µM (inactive) | COc1cc(C=NNC(=S)Nc2cccc(S(=O)(=O)N(C)C)c2)ccc1O |
| > 100 µM (inactive) | COc1ccc(Cl)cc1Nc1nc(-c2ccc(O)c(O)c2)cs1 |
| > 100 µM (inactive) | Cc1cccc2sc(NNC(=O)c3ccc4c(c3)OCCO4)nc12 |
| > 100 µM (inactive) | Cc1cccc(Nc2nc(-c3ccc(O)c(O)c3)cs2)c1 |
| > 100 µM (inactive) | Oc1ccc(-c2csc(Nc3ccc(F)cc3)n2)cc1O |
| > 100 µM (inactive) | COc1ccc(C=Nn2c(=S)n(C)c3ccccc32)cc1OC |

| IC50 | SMILES |
| --- | --- |
| > 100 µM (inactive) | Cc1ccc(Nc2nc(-c3ccc(O)cc3O)cs2)cc1F |
| 33.8 µM | NS(=O)(=O)c1ccc(Nc2nc(-c3ccc(O)c(O)c3)cs2)cc1 |
| > 100 µM (inactive) | Cc1cccc(NC(=S)NNC(=O)c2ccc3c(c2)OCO3)c1 |
| > 100 µM (inactive) | COC(=O)/C=C1\S/C(=N/N=C/c2ccc(Cl)cc2)NC1=O |
| > 100 µM (inactive) | Oc1ccc(-c2csc(Nc3ccccc3)n2)c(O)c1 |
| > 100 µM (inactive) | Oc1ccc(-c2csc(Nc3cccc4ccccc34)n2)cc1O |
| > 100 µM (inactive) | O=[N+]([O-])c1ccc(NC(=S)NCCC(c2ccccc2)c2ccccc2)cc1 |
| > 100 µM (inactive) | CCN(CC)S(=O)(=O)c1ccc(-c2csc(=Nc3cccc4ccccc34)n2C)cc1 |
| > 100 µM (inactive) | COc1ccc(C=NNC(=S)Nc2ccccc2[N+](=O)[O-])cc1O |
| > 100 µM (inactive) | COc1ccc(NC(=S)NCCC(c2ccccc2)c2ccccc2)cc1 |
| > 100 µM (inactive) | COc1cc(C(=O)NNC(=S)Nc2ccc(S(N)(=O)=O)cc2)cc(OC)c1OC |
| > 100 µM (inactive) | COc1cc(/C=N/N=C2\NC(=O)C(CC(=O)O)S2)cc(OC)c1OC (stereo unspecified) |
| > 100 µM (inactive) | CCOc1cc(/C=N/N=C2\NC(=O)C(CC(=O)O)S2)ccc1O (stereo unspecified) |
| > 100 µM (inactive) | Cc1cccc(NC(=S)NN=Cc2ccc3c(c2)OCO3)c1 |
| > 100 µM (inactive) | COC(=O)/C=C1/S/C(=N/NC(=O)c2ccccc2)NC1=O |
| > 100 µM (inactive) | COc1ccc(C=NN=C2SC(CC(=O)O)C(=O)N2c2ccc(O)cc2)cc1 (stereo unspecified) |
| > 100 µM (inactive) | COC(=O)/C=C1\S/C(=N/N=C/CC(=O)OC)NC1=O |
| > 100 µM (inactive) | Cc1ccc(Nc2nc(-c3ccc(O)c(O)c3)cs2)cc1F |
| > 100 µM (inactive) | O=C(O)CC1S/C(=N/N=C/c2ccco2)NC1=O (stereo unspecified) |
| > 100 µM (inactive) | COC(=O)C/C=N/N=C1\NC(=O)/C(=C/C(=O)O)S1 |
| > 100 µM (inactive) | Cc1cc(=O)oc2cc(NC(=S)NCCC(c3ccccc3)c3ccccc3)ccc12 |
| > 100 µM (inactive) | Cn1c(=S)n(N=Cc2ccc3c(c2)OCO3)c2ccccc21 |
| > 100 µM (inactive) | Cc1ccc(Nc2nc(-c3ccc(O)c(C(N)=O)c3)cs2)cc1 |
| > 100 µM (inactive) | COc1cc(C=NNC(=S)Nc2cccc(C(=O)O)c2)ccc1O |
